Tested on: P388
Assay: Cytotoxicity against mouse P388 cells
Type: functional
Details: read-out: ID50 (the source's name)

For `CC(C)CCCCCC(O)C#CC#C/C=C\OCC(O)CO` (configuration not stated), the IC50 was > 6 µg/mL.

With `CCCCCCCCCC(O)C#CC#C/C=C\OCC(O)CO` (configuration not stated) the IC50 was > 11 µg/mL.

From ChEMBL document CHEMBL1158908, “Diyne Enol Ethers of Glycerol from a New Zealand Sponge, Petrosia hebes” (1990)
